Like-named read-outs stand apart in the source and are kept apart here.
How the values were obtained:
[1] = test system: IRF-Lucia luciferase reporter (ISRE) in THP1-Dual cells; assay: THP1-Dual IRF-Lucia luciferase reporter assay (ISRE activation); assay type: cell-based, human; conditions: Homo sapiens, THP1-Dual, read-out: THP1 IRF EC50
Description: (§1) THP1 Dual (InvivoGen) cell suspensions were cultured in RPMI 1640 (Hyclone, Logan, Utah) supplemented with 10% fetal bovine serum (Hyclone), 100 U/mL Normocin (Invivogen), and 50 U/mL PenStrep (Gibco, Dublin, Ireland) between a density of 7·10^5-2·10^6 cells/mL. Every other passage, media was supplemented with 5 U/mL Blasticidin and 100 U/mL Zeocin to maintain the expression constructs. White, flat-bottom 384-well plates (Greiner, Kremsmunster, Austria, 781080) were seeded with 2.5·10^4 cells/well in a total of 50 μL media containing 5 ng/mL phorbolmyristic acid (PMA) using a Matrix WellMate (Thermo Scientific) dispenser. After 48 hours of incubation at 37° C., media was removed using a BioTek ELx405 CW plate washer set to aspirate and wash each well three times with 65 μL 1×PBS. Plates were reloaded with 50 μL media without PMA and treatments added. Lipopolysaccharide in dimethylsulfoxide (DMSO) was transferred to control wells using a HP D300 microdispenser to a final concentration of 313 ng/mL. Compounds from chemical library plates were copied using a Sciclone (Caliper LifeSciences) mounted with a 384-pin transfer tool to obtain a final concentration of 10 μM. After incubation with treatments for 24 hours, 10 μL of supernatant media from each well was transferred into a white, flat-bottom 384-well plate for luminescence readout and a black-walled, clear flat-bottom 384-well plate for absorbance readout.
(§2) Specifically, to enable screening of novel chemical entities (NCEs) in a larger screening effort, a robust high-throughput cell-based assay system for primary hit identification of ISRE activators based on the above-mentioned target validation was desired. Human ISRE activity was verified using a THP-1 monocyte line containing the NF-κB-SEAP and IRF-Lucia luciferase dual reporter (THP1-Dual; Invivogen) that features two reporter genes, SEAP (secreted embryonic alkaline phosphatase) and Lucia luciferase, thereby enabling the simultaneous study of the NF-κB and IRF signalling pathways. The Lucia luciferase reporter is under the control of an ISG54 (interferon-stimulated gene) minimal promoter in conjunction with five IFN-stimulated response elements. The SEAP gene is driven by an IFN-β minimal promoter fused to five copies of the NF-κB consensus transcriptional response element and three copies of the c-Rel binding site. Both reporter proteins are readily measurable in the cell culture supernatant when using QUANTI-LUC™ and QUANTI-Blue SEAP detection reagents.
The responsiveness of the human THP-1 Dual cell line was evaluated in an array of assay conditions to obtain sensitive and reproducible results for the activation of IRF and NF-κB reporters. […] All transfer steps are fully automated using high throughput robotic equipment. Briefly, cells are seeded in differentiation medium using a Matrix WellMate fitted with the WellMate Stacker (Thermo Scientific) and incubated at 37° C. with 5% CO2 for 48 h. Following differentiation, cells are washed using a BioTek ELx405 Select CW plate washer and growth medium added with the Matrix WellMate. Programmed control treatments are added to wells using a D300 digital dispenser fitted with T8+ dispense heads (Hewlett Packard) designed to dispense nanoliter quantities of material. Compounds from library plates are added using a pin tool fitted to a Sciclone ALH 3000 Workstation (Caliper Life Sciences) programmed with Maestro v4.4. After treatment, plates are returned to incubators for 24 hours. To measure reporter expression, supernatant is collected using the Sciclone and dispensed into 2 plates: 1) a white 384-well assay plate for Lucia luminescence measurements and 2) a clear-bottom black 384-well assay plate for SEAP absorbance measurements.

[2] = THP1-Dual cytotoxicity (Cell Titer Glo, ATP); assay type: cell-based, human; conditions: human, THP1-Dual cells, read-out: Thp1 cytotox CC50
How it was run: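 CC50, the concentration killing half the cells, was derived from ATP-dependent CellTiter-Glo luminescence. Cells were THP1-Dual (human) and compound was tested as an 8-point dose-response series, with viability read in the same plate.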

[3] = test system: IRF-Lucia luciferase reporter (ISRE) in J774-Dual cells; assay: J774-Dual IRF-Lucia luciferase reporter assay (ISRE activation); assay type: cell-based, mouse; conditions: for EC50: Mus musculus, read-out: J774 IRF EC50
Description: First, optimal assay conditions and assay quality in 384-well format were determined. As mentioned, the mouse macrophage J774 cell line (J774-Dual, InvivoGen) stably transfected with the same inducible reporters described above (e.g., IRF-Lucia luciferase and NF-κB-SEAP) was used. The responsiveness of the J774-Dual cell line was investigated in an array of assay conditions to obtain sensitive and reproducible results for the activation of the IRF and NF-κB reporters. An optimal plating density and conditions for these cells was established for these cells in a 384-well format. Assay work-flow is similar to that discussed above for the THP1-Dual assay without a need for cell differentiation. Thus, cells are seeded directly in growth medium and incubated at 37° C. in a 5% C02 incubator for 24 hours prior to the programmed treatments being added as described herein.
The primary high throughput screen used the HTS platform of human THP1 monocyte cells containing the IRF-Lucia luciferase and NFκB-SEAP (secreted embryonic alkaline phosphatase) dual reporter (THP1-Dual, Invivogen), enabling the simultaneous study of the IRF and NFκB signaling pathways respectively. As discussed, the Lucia luciferase reporter gene is under the control of an ISG54 (interferon-stimulated gene) minimal promoter in conjunction with five interferon-stimulated response elements (ISRE). The SEAP gene is driven by an IFNβ minimal promoter fused to five copies of the NFκB consensus transcriptional response element and three copies of the c-Rel binding site. Both IRF-Lucia luciferase and NFκB-SEAP reporter proteins are secreted and readily measurable in the cell culture supernatant when using QUANTI-Luc™ and QUANTI-Blue™ detection reagents, respectively. Identified “hits” were confirmed in a secondary screen with an 8-point dose response curve. Hits were further screened for activity in the mouse using the mouse J774 macrophage-like cell line containing the identical reporter constructs (J774-Dual, Invivogen).
The OTRADI Small Molecule Library of approximately 246,000 diverse compounds (see below for description) was screened using the THP1-Dual based HTS platform described above. All transfer steps in the screen are fully automated, thus reducing variability. Primary screening included a single data point or dose for each molecule. After data normalization was applied for each assay run, “hit” selection was performed on the plates that pass the quality control (QC) criterion. Hits were defined as samples having values above the activity cutoff determined based on noise level of the assay to reduce false positive rates. In the pilot study discussed above this activity value was >3σ above the ISRE mean with the added criteria of NFκB activation being lower than […] from the mean to identify IRF selective compounds. The ratio of ISRE:NFκB activity was also calculated as a selectivity index for prioritizing hit selection. Primary hits underwent secondary screening to determine the 50% effective concentration (EC50) and 50% cytotoxic concentration (CC50) of these agents using an 8-point dose-response curve in the human THP1-Dual cells. Cytotoxicity was measured in the plate using Cell Titer Glo (Promega). Identified candidate compounds were further screened (orthogonal screen) for cross species activity in the validated mouse J774-Dual assay using an 8-point dose-response format to determine EC50 and CC50 values as well as ISRE:NFκB ratios. A general process flow for the experimental design laid out above is depicted at FIG. 12.

[4] = J774-Dual cytotoxicity; assay type: cell-based, mouse; conditions: mouse, J774-Dual cells, read-out: J774 cytotox CC50
How it was run: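 CC50 derived from 8-point concentration series in mouse J774-Dual reporter cells, with viability read by CellTiter-Glo in the same plate. Run in parallel with EC50 and ISRE:NFκB ratio determination for cross-species confirmation.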

[5] = test system: NF-κB-SEAP reporter in THP1-Dual cells; assay: THP1-Dual NF-κB-SEAP reporter counterscreen; assay type: cell-based, human; conditions: Homo sapiens, THP1-Dual, read-out: THP1 NFkB EC50
Description: as §1, §2
Using the experimental design and data analysis outlined above, optimized assay conditions were obtained. The responsiveness of the human THP-1 Dual cell line was evaluated in an array of assay conditions to obtain sensitive and reproducible results for the activation of IRF and NF-κB reporters. An optimal plating density and differentiation protocol for these cells was established in a 384-well format. All transfer steps are fully automated using high throughput robotic equipment. Briefly, cells are seeded in differentiation medium using a Matrix WellMate fitted with the WellMate Stacker (Thermo Scientific) and incubated at 37° C. with 5% CO2 for 48 h. Following differentiation, cells are washed using a BioTek ELx405 Select CW plate washer and growth medium added with the Matrix WellMate. Programmed control treatments are added to wells using a D300 digital dispenser fitted with T8+ dispense heads (Hewlett Packard) designed to dispense nanoliter quantities of material. Compounds from library plates are added using a pin tool fitted to a Sciclone ALH 3000 Workstation (Caliper Life Sciences) programmed with Maestro v4.4. After treatment, plates are returned to incubators for 24 hours. To measure reporter expression, supernatant is collected using the Sciclone and dispensed into 2 plates: 1) a white 384-well assay plate for Lucia luminescence measurements and 2) a clear-bottom black 384-well assay plate for SEAP absorbance measurements. […]

[6] = Human Reporter Cell Line, 8-point dose response
[7] = J774, Mouse Reporter Cell Line, 8-point dose response
[8] = Mouse Reporter Cell Line J774, at peak
[9] = J774, Mouse Reporter Cell Line J774

| Compound | CC50 ([2]; Human Reporter Cell Line) | CC50 ([4]; Mouse Reporter Cell Line) | EC50 ([5]; Human Reporter Cell Line THP1) | CC50 ([2]; Human Reporter Cell Line THP1) | CC50 ([4]; Mouse Reporter Cell Line J774) | further results |
| --- | --- | --- | --- | --- | --- | --- |
| Cc1cccc(C(=O)Nc2ccc(N3CCN(C(=O)c4cccs4)CC3)cc2)c1C [NA-6] | > 25 µM | > 25 µM |  |  |  | EC50 [1, 6]: 7.47 µM; J774 IRF % activation at peak ([3]; Mouse Reporter Cell Line): 22.78%; EC50 [3, 7]: 13.1 µM |
| Cc1cc2nc(-c3ccc(C)c(NC(=O)c4ccc(OCc5ccccc5)cc4)c3)oc2cc1C [ND-105] |  |  | 2.19 µM | > 10 µM | > 10 µM |  |
| COc1ccc(C(=O)Nc2cc(-c3nc4cc(OCCCN5CCCC5)ccc4o3)ccc2C)cc1[N+](=O)[O-] [ND-92] |  |  | ~2.33 µM | > 25 µM | > 25 µM |  |
| Cc1ccc(C(=O)Nc2ccc(O)c(-c3nc4ccccc4s3)c2)cc1[N+](=O)[O-] [ND-63] |  |  | ~3.2 µM | 27.4 µM | > 25 µM |  |
| COc1c(Cl)cc(C(=O)Nc2cc(-c3nc4cc(Cl)ccc4o3)ccc2C)cc1Cl [ND-101] |  |  | ~3.75 µM | > 25 µM | > 25 µM |  |
| O=C(Nc1ccc(N2CCN(C(=O)c3cccs3)CC2)cc1)c1ccc2ccccc2c1 [NA-7] | > 25 µM | > 25 µM |  |  |  | EC50 [1, 6]: 3.91 µM; J774 IRF % activation at peak ([3]; Mouse Reporter Cell Line): 5.638%; EC50 [3, 7]: 4.36 µM |
| Cc1ccc(-c2nc3ccccc3s2)cc1NC(=O)c1cc(I)ccc1Cl [ND-62] |  |  | ~9.34 µM | > 25 µM | > 25 µM |  |
| Cc1ccc(-c2nc3cc(Cl)ccc3o2)cc1NC(=O)c1cc([N+](=O)[O-])c(C)c([N+](=O)[O-])c1 [ND-61] |  |  | ~5.61 µM | > 25 µM | > 25 µM |  |
| COc1ccc(C(=O)Nc2cc(-c3nc4cc(Cl)ccc4o3)ccc2C)cc1[N+](=O)[O-] [ND-40] |  |  |  | 16.1 µM | > 25 µM | EC50 ([1]; Human Reporter Cell Line THP1): 2.63 µM; J774 IRF % activation at peak [3, 8]: 119.6%; EC50 [3, 9]: 4.5 µM |
| COc1c(C)cc(Br)cc1C(=O)Nc1ccc(N2CCN(C(=O)c3cccs3)CC2)cc1 [NA-31] | > 25 µM | > 25 µM |  |  |  | EC50 [5, 6]: ~3.24 µM |
| Cc1cc(C)c2c(N)c(C(=O)Nc3ccc4ccccc4c3)sc2n1 [ND-6] |  |  |  | 49.8 µM | > 25 µM | EC50 ([1]; Human Reporter Cell Line THP1): 11.9 µM; J774 IRF % activation at peak [3, 8]: 18.79%; EC50 [3, 9]: ~7.27 µM |
| COc1ccc(C(=O)Nc2cc(-c3nc4ccccc4s3)ccc2C)cc1Br [ND-68] |  |  | ~9.75 µM | > 25 µM | > 25 µM |  |
| CC(Oc1ccc(C(=O)Nc2ccc(N3CCN(C(=O)c4cccs4)CC3)cc2)cc1)c1ccccc1 (stereo not drawn) [NA-22] | > 25 µM | > 25 µM |  |  |  | EC50 [5, 6]: ~2.62 µM |
| COC(=O)COc1cccc(NC(=O)c2cccc(NC(=O)c3cccs3)c2)c1 [NC-4] | > 25 µM | > 25 µM |  |  |  | EC50 [1, 6]: 9.88 µM; J774 IRF % activation at peak ([3]; Mouse Reporter Cell Line): 6.428%; EC50 [3, 7]: ~5.88 µM |
| O=C(Nc1ccc(N2CCN(C(=O)c3cccs3)CC2)cc1)c1ccc2c(c1)OCCO2 [NA-28] | > 25 µM | > 25 µM |  |  |  | EC50 [5, 6]: 3.02 µM |
| COc1ccc2oc(-c3ccc(C)c(NC(=O)c4ccc(OC)c([N+](=O)[O-])c4)c3)nc2c1 [ND-86] |  |  | ~3.85 µM | > 25 µM | > 25 µM |  |
| Cc1ccc(-c2nc3ccccc3s2)cc1NC(=O)c1ccc(C(F)(F)F)c([N+](=O)[O-])c1 [ND-79] |  |  | ~11.3 µM | > 25 µM | > 25 µM |  |
| COc1ccc(NC(=O)c2cc(NC(=O)c3cccs3)ccc2N2CCOCC2)cc1Cl [NB-22] |  |  |  | > 25 µM | > 25 µM | EC50 ([1]; Human Reporter Cell Line THP1): 3.26 µM; J774 IRF % activation at peak [3, 8]: 24.91%; EC50 [3, 9]: 65 µM |
| CCOc1ccc(C(=O)Nc2cc(-c3nc4ncccc4o3)ccc2C)cc1[N+](=O)[O-] [ND-48] |  |  |  | 7.26 µM | > 25 µM | EC50 ([1]; Human Reporter Cell Line THP1): ~3.05 µM; J774 IRF % activation at peak [3, 8]: 4.4%; EC50 [3, 9]: 10 µM |
| Cc1ccc(C(=O)Nc2cc(-c3nc4ccccc4s3)ccc2C)c(C)c1 [ND-104] |  |  | 12.2 µM |  |  |  |

From patent publication US20220395500A1, “SMALL MOLECULE ACTIVATORS OF INTERFERON REGULATORY FACTOR 3 AND METHODS OF USE THEREOF” (Neuralexo, Inc., priority 2020, published 2022)
